Laboratory results from patent US11584769B2, “Diterpene glycosides, compositions and purification methods” (The Coca-Cola Company, priority 2014, dated 2023).

Key:
[1] = Solubility observed when preparing NMR samples (solvent screen); type: physicochemical; conditions: for Dissolution of the sample in 250 μL of CD3OD: ~4.3 mg (4, CD3OD+TMS) or 3.8 mg (6) in 250 μL
Description: Isolation Procedure. Fractions collected during the final pre-concentration step were filtered through a stainless steel sieve and concentrated in vacuo using a Buchi® Rotary Evaporator, Model R-114. The concentrated solution was dried for 48-72 h using the Kinetics Flexi-Dry Personal Freeze Dryer, followed by vacuum oven drying at 37° C. for 24 h to remove residual moisture. MS and MS/MS. MS and MS/MS data were generated with a Waters QTof Micro mass spectrometer equipped with an electrospray ionization source. The sample was analyzed by negative ESI. The sample was diluted to a concentration of 0.1 mg/mL with H2O:MeCN (1:1) and introduced via flow injection for MS data acquisition, tuned for MS/MS and acquired by direct infusion. NMR. […] The ^1H, COSY, HSQC-DEPT and NOESY NMR data were acquired on Bruker Avance 500 MHz instruments with either a 2.5 mm inverse probe or a 5 mm broad band probe. The ^13C and HMBC NMR data were acquired at the Rensselaer Polytechnic Institute using their Bruker Avance 600 MHz instrument with a 5 mm cryo-probe. The ^1H and ^13C NMR spectra were referenced to the TMS resonance at δH 0.00 ppm and CD3OD resonance at 49.0 ppm, respectively. […] The sample was recovered and blown dry under nitrogen or lyophilized between each solvent screen]. Results and Discussion Unless otherwise noted, all solvent ratios are listed as percent by volume (v/v). Primary Purification. Approximately 300 g of Lot #CB-2977-171 was processed using the primary preparative HPLC method described above. […] Fraction 3 (Lot #JAM-D-10-3) contained the target of interest. Secondary Purification. Lot #JAM-D-10-3 (and equivalent lots) was reprocessed with conditions summarized above. […] Tertiary Purification. Fraction Lot #JAM-D-40-2 was reprocessed with conditions summarized above. Fractions with low level m/z 1776 targets were collected as CJP-C-128 (3, 4, 5, 7). These fractions were subsequently pooled to enhance signal strength for additional processing. Quaternary Purification. Fraction Lot #CJP-C-128 (3, 4, 5, 7) (and equivalent lots) were reprocessed with conditions summarized above. Fraction 1, Lot #CJP-C-130(1), was isolated for additional processing. Quinary Purification. Fraction Lot #CJP-C-130(1) (and equivalent lots) were reprocessed with conditions summarized above. Fraction 9, Lot #CJP-C-133(9), was isolated. […] Secondary Purification. Fraction Lot #CJP-C-133(9) was reprocessed with conditions summarized above. Final Batch Preparation. The purified solution was filtered through a stainless steel sieve to remove particulates. The solution was then concentrated by rotary evaporation and lyophilized for about 72 h. The final batch (4.3 mg), was isolated with >99% (AUC, CAD) purity. Mass Spectrometry. […]

[2] = test system: panelists; experiment: Sensory evaluation of 1 and 3 (single sip protocol, taste panel); type: in vivo, human; conditions: 400 ppm in water, 4° C.; for Bitter Aftertaste Intensity / Sweet Linter Intensity / Other Intensity / Overall Max Bitterness Intensity / Overall Max Sweetness Intensity / Bitter Intensity (In mouth) / Sweet Intensity (In mouth): mean score; for Bitter Aftertaste Intensity / Sweet Linter Intensity: 1 minute after tasting; for Other Intensity: any aromatic other than sweet and bitter or mouthfeel; for Overall Max Bitterness Intensity / Overall Max Sweetness Intensity: up to 1 minute
Description: Samples were prepared as described in Table 1. All samples were served at 4° C.
Samples were evaluated using a single sip protocol as follows: • Samples were served at approximately 4° C. • Panelists were instructed to take 1 sip of the sample, hold in mouth for 5 seconds, expectorate comfortable with this), and rate the given attributes • A 5 minute break was placed between each sample and panelists were instructed to cleanse their palates with at least 1 bite of unsalted cracker and 2 sips of filtered water • Due to limited sample quantities, panelists were given the following amounts to test: • a 3 vs Reb M: 1.5 mL • 1 vs Reb M: 5 mL • Samples were randomized within each session for each panelist • All samples were presented in replicate in each session Samples were evaluated for: • Sweet taste intensity: maximum level of sweetness in mouth during 5 seconds • Bitter taste intensity: maximum level of bitterness in mouth during 5 seconds • Overall maximum sweet intensity: maximum sweet intensity experienced from the time the sip is taken up to 1 minute • Overall maximum bitter intensity: maximum […] intensity experienced from the time the sip is taken up to 1 minute • Other intensity: Intensity of any aromatic other than sweet and bitter (metallic, plastic, licorice, etc.) or mouthfeel/sensation • Sweet linger intensity: sweet intensity 1 minute after tasting the sample • Bitter aftertaste intensity: bitter intensity 1 minute after tasting the sample Data Analysis. A 3-way ANOVA was used to compare the sweeteners for each attribute, for 1 only, and significance was determined at p<0.05. Fishers's LSD was used to determine significant differences between mean scores.

[3] = 1 vs Reb M session, 5 mL sip, N=6
[4] = 3 vs Reb M session, 1.5 mL sip, N=3

SMILES	Solubility in solvent screen ([1]; pyridine-d5+TMS (~4 mg/170 μL), D2O+TSP (~4 mg/170 μL), DMSO-d6+TMS)	Dissolution of the sample in 250 μL of CD3OD [1]	Soluble portion of the sample in CD3OD+TMS ([1]; ~4.3 mg of sample in 250 μL of CD3OD+TMS)	Bitter Aftertaste Intensity [2, 3]	Sweet Linter Intensity [2, 3]	Bitter Aftertaste Intensity [2, 4]	Sweet Linter Intensity [2, 4]	Other Intensity [2, 3]	Other Intensity [2, 4]	Overall Max Bitterness Intensity [2, 3]	Overall Max Sweetness Intensity [2, 3]	Overall Max Bitterness Intensity [2, 4]	Overall Max Sweetness Intensity [2, 4]	Bitter Intensity (In mouth) [2, 3]	Sweet Intensity (In mouth) [2, 3]	Bitter Intensity (In mouth) [2, 4]	Sweet Intensity (In mouth) [2, 4]	Overall Max Sweetness compared to Reb M [2]	Sweet Intensity in Mouth compared to Reb M [2]	Sweet Linger Intensity compared to Reb M [2]
C=C1C[C@@]23CC[C@H]4[C@@](C)(CCC[C@@]4(C)C(=O)OC4OC(CO)C(O)C(OC5OC(CO)C(O)C(O)C5O)C4OC4OC(CO)C(O)C(OC5OC(CO)C(O)C(OC6OC(CO)C(O)C(O)C6O)C5OC5OC(CO)C(O)C(O)C5O)C4O)[C@@H]2CCC1(OC1OC(CO)C(O)C(OC2OC(CO)C(O)C(O)C2O)C1OC1OC(CO)C(O)C(O)C1O)C3 (stereo partly shown) [diterpene glycoside 4]	very poor solubility	did not dissolve readily	~1.5 mg/250 μL	–	–	–	–	–	–	–	–	–	–	–	–	–	–	–	–	–
C=C1C[C@@]23CC[C@H]4[C@@](C)(CCC[C@@]4(C)C(=O)OC4OC(CO)C(O)C(OC5OC(CO)C(O)C(O)C5O)C4OC4OC(COC5OC(CO)C(O)C(OC6OC(CO)C(O)C(O)C6O)C5OC5OC(CO)C(O)C(O)C5O)C(O)C(O)C4O)[C@@H]2CCC1(OC1OC(CO)C(O)C(OC2OC(CO)C(O)C(O)C2O)C1OC1OC(CO)C(O)C(O)C1O)C3 (stereo partly drawn) [diterpene glycoside 6, (13-[(2-O-β-D-glucopyranosyl-3-O-β-D-glucopyranosyl)-β-D-glucopyranosyl)oxy] ent-kaur-16-en-19-oic acid-[(2-O-β-D-glucopyranosyl-(6-O-α-D-glucopyranosyl-(2-O-β-D-glucopyranosyl-3-O-β-D-glucopyranosyl)-3-O-β-D-glucopyranosyl)-β-D-glucopyranosyl) ester]]	–	did not dissolve completely	–	–	–	–	–	–	–	–	–	–	–	–	–	–	–	–	–	–
C=C1C[C@@]23CC[C@H]4[C@@](C)(CCC[C@@]4(C)C(=O)O[C@@H]4O[C@H](CO)[C@@H](O)[C@H](O[C@@H]5O[C@H](CO)[C@@H](O)[C@H](O)[C@H]5O)[C@H]4O[C@@H]4O[C@H](CO)[C@@H](O)[C@H](O)[C@H]4O)[C@@H]2CC[C@]1(O[C@@H]1O[C@H](CO)[C@@H](O)[C@H](O[C@@H]2O[C@H](CO)[C@@H](O)[C@H](O)[C@H]2O)[C@H]1O[C@@H]1O[C@H](CO)[C@@H](O)[C@H](O)[C@H]1O)C3 [Reb M, rebaudioside M, reference compound]	–	–	–	0.5	3.6	0.3	2.5	0.8	0.3	0.8	8.4	1.4	6.3	0.7	7.8	0.4	7.4	–	–	–
C=C1C[C@@]23CC[C@H]4[C@@](C)(CCC[C@@]4(C)C(=O)OC4OC(CO)C(O)C(OC5OC(CO)C(O)C(O)C5O)C4OC4OC(CO)C(O)C(O)C4O)[C@@H]2CCC1(OC1OC(CO)C(O)C(OC2OC(CO)C(O)C(O)C2O)C1OC1OC(COC2OC(CO)C(O)C(OC4OC(CO)C(O)C(O)C4O)C2OC2OC(CO)C(O)C(O)C2O)C(O)C(O)C1O)C3 (stereo partly shown) [diterpene glycoside 1]	–	–	–	0.8	0.0	–	–	1	–	0.8	1.1	–	–	0.7	–	–	–	significantly lower	significantly lower	significantly lower
C=C1C[C@@]23CC[C@H]4[C@@](C)(CCC[C@@]4(C)C(=O)OC4OC(COC5OC(CO)C(O)C(OC6OC(CO)C(O)C(O)C6O)C5OC5OC(CO)C(O)C(O)C5O)C(O)C(OC5OC(CO)C(O)C(O)C5O)C4OC4OC(CO)C(O)C(O)C4O)[C@@H]2CCC1(OC1OC(CO)C(O)C(OC2OC(CO)C(O)C(O)C2O)C1OC1OC(CO)C(O)C(O)C1O)C3 (stereo partly drawn) [diterpene glycoside 3, (13-[(2-O-β-D-glucopyranosyl-3-O-β-D-glucopyranosyl)-β-D-glucopyranosyl)oxy] ent-kaur-16-en-19-oic acid-[(2-O-β-D-glucopyranosyl-3-O-β-D-glucopyranosyl-6-O-α-D-glucopyranosyl-(2-O-β-D-glucopyranosyl-3-O-β-D-glucopyranosyl)-β-D-glucopyranosyl) ester]]	–	–	–	–	–	0.3	0.9	–	0.5	–	–	1.3	5.6	–	–	0.3	5.4	slightly lower	slightly lower	significantly less
